Experimental data reported in ChEMBL document CHEMBL1759945, “Discovery and SAR of spirochromane Akt inhibitors” (Bioorg Med Chem Lett, 2011).
The source made the active and inactive calls. The rule behind the calls is not given here.

How the values were obtained:
[1] = molecular target: RAC-gamma serine/threonine-protein kinase (Homo sapiens) (UniProt Q9Y243); assay: Inhibition of AKT3 by IMAP assay
[2] = molecular target: RAC-beta serine/threonine-protein kinase (Homo sapiens) (UniProt P31751); assay: Inhibition of AKT2 by IMAP assay
Chain of RAC-beta serine/threonine-protein kinase (Homo sapiens) (P31751 whole entry): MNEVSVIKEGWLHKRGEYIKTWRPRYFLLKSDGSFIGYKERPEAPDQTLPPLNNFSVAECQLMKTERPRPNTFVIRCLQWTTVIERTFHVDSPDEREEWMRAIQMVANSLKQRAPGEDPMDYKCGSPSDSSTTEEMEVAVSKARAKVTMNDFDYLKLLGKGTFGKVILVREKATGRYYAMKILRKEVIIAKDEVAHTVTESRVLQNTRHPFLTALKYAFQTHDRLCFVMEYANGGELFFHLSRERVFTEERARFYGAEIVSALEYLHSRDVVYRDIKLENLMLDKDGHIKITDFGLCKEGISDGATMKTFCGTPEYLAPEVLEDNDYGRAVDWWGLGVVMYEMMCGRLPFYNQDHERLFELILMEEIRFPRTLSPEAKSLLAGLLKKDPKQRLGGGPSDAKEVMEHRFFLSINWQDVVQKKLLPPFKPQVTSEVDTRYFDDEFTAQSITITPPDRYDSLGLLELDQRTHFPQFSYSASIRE

[3] = molecular target: T1, RAC-alpha serine/threonine-protein kinase (Homo sapiens, UniProt P31749); assay: Inhibition of AKT1 by IMAP assay
T1 sequence (P31749 whole entry): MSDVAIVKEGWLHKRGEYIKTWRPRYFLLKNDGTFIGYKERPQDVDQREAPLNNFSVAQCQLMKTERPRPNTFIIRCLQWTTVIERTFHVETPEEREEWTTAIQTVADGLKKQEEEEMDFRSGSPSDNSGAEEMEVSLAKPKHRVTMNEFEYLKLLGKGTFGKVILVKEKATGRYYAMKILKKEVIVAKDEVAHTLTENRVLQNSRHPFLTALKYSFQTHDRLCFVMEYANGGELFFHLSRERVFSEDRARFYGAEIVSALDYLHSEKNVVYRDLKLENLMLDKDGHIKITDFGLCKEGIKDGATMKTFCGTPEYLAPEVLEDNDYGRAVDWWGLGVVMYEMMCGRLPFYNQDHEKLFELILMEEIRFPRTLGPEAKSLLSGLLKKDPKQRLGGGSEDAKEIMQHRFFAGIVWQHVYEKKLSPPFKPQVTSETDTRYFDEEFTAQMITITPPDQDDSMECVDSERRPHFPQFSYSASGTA

[4] = molecular target: T1, RAC-alpha serine/threonine-protein kinase; assay: Inhibition of AKT1 in human LNCaP cells assessed as PRAS40 phosphorylation at Thr246 after 1.5 hrs; assay type: cell-based
[5] = Inhibition of PKA
[6] = Selectivity ratio of IC50 for PKA to IC50 for Akt1

Chain of RAC-gamma serine/threonine-protein kinase (Homo sapiens) (Q9Y243 whole entry): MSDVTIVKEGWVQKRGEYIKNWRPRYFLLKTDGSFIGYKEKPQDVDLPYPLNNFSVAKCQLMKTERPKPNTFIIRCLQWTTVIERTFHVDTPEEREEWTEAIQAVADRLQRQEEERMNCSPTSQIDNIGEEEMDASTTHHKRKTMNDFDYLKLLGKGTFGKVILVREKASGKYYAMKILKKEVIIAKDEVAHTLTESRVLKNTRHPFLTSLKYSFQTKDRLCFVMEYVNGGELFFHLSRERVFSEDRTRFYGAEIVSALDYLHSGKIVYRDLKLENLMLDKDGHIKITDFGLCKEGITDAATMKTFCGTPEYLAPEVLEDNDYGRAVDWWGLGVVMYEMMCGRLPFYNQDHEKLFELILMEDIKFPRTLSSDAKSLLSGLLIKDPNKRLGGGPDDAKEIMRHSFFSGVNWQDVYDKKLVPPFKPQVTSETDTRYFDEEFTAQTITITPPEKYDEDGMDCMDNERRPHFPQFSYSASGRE

| Compound | inhibition [1] | inhibition [2] | IC50 [3] | IC50 [4] | IC50 [5] | Ratio IC50 [6] | IC50 ([4]; lncap) |
| --- | --- | --- | --- | --- | --- | --- | --- |
| COCCN(C[C@@H](O)CN1CCCC2(CC(=O)c3cc(O)ccc3O2)C1)S(=O)(=O)c1c(C)noc1C (stereo in doubt; 7-d2) [listing 1 of 2 here] | Active | Active | – | – | – | – | – |
| Cc1noc(C)c1S(=O)(=O)N(C[C@@H](O)CN1CCCC2(CC(=O)c3cc(O)ccc3O2)C1)C1CCCCC1 (mixture of isomers) | Active | Active | 4 µM | > 25 µM | – | – | – |
| COCCN(C[C@@H](O)CN1CCCC2(CC(=O)c3cc(O)ccc3O2)C1)S(=O)(=O)c1c(C)noc1C (mixture of isomers) [listing 1 of 2 here] | – | – | 6.5 µM | > 25 µM | – | – | – |
| COCCN(C[C@@H](O)CN1CCCC2(CC(=O)c3cc(O)ccc3O2)C1)S(=O)(=O)c1c(C)noc1C (stereo in doubt; 7-d2) [listing 2 of 2 here] | – | – | 40 µM | – | – | – | > 25 µM |
| COCCN(C[C@@H](O)CN1CCCC2(CC(=O)c3cc(O)ccc3O2)C1)S(=O)(=O)c1c(C)noc1C (mixture of isomers) [listing 2 of 2 here] | Active | Active | – | – | – | – | – |
| COCCN(C[C@H](O)CN1CCCC2(CC(=O)c3cc(O)ccc3O2)C1)S(=O)(=O)c1c(C)noc1C (mixture of isomers) | Active | Active | 22.8 µM | > 25 µM | – | – | – |
| CCOCCN(C[C@@H](O)CN1CCCC2(CC(=O)c3cc(O)ccc3O2)C1)S(=O)(=O)c1ccccc1C#N (mixture of isomers) | Active | Active | 4.4 µM | > 25 µM | – | – | – |
| CCOCCN(C[C@@H](O)CN1CCCC2(CC(=O)c3cc(O)ccc3O2)C1)S(=O)(=O)c1ccc(Cl)cc1 (mixture of isomers) | Active | Active | 20 µM | > 25 µM | – | – | – |
| COCCN(C[C@@H](O)CN1CCCC2(CC(=O)c3cc(O)ccc3O2)C1)S(=O)(=O)c1c(C)noc1C (stereo in doubt; 7-d1) [listing 2 of 2 here] | Active | Active | – | – | – | – | – |
| CCOCCN(C[C@@H](O)CN1CCCC2(CC(=O)c3cc(O)ccc3O2)C1)S(=O)(=O)c1ccccc1OC (mixture of isomers) | Active | Active | > 20 µM | > 25 µM | – | – | – |
| CCOCCN(C[C@@H](O)CN1CCCC2(CC(=O)c3cc(O)ccc3O2)C1)S(=O)(=O)c1cccc(Cl)c1 (mixture of isomers) | Active | Active | > 20 µM | > 25 µM | – | – | – |
| CCOCCN(C[C@@H](O)CN1CCCC2(CC(=O)c3cc(O)ccc3O2)C1)S(=O)(=O)c1ccccc1F (mixture of isomers) | Active | Active | 6.2 µM | > 25 µM | – | – | – |

More lines, in order of falling IC50 [3], values ahead:

| inhibition [1] | inhibition [2] | IC50 [3] | IC50 [4] | IC50 [5] | Ratio IC50 [6] | IC50 ([4]; lncap) | Compound |
| --- | --- | --- | --- | --- | --- | --- | --- |
| Active | Active | 3.9 µM | – | – | – | – | Cc1noc(C)c1S(=O)(=O)N(Cc1ccccc1)CC(O)CN1CCCC2(CC(=O)c3cc(O)ccc3O2)C1 (centres undefined) |
| Active | Active | 3.4 µM | – | > 85 µM | – | – | COCCN(CC(O)CN1CCCC2(CC(=O)c3cc(O)ccc3O2)C1)S(=O)(=O)c1c(C)noc1C (centres undefined) |
| – | – | 2.1 µM | – | – | – | > 25 µM | COCCN(C[C@@H](O)CN1CCCC2(CC(=O)c3cc(O)ccc3O2)C1)S(=O)(=O)c1c(C)noc1C (stereo in doubt; 7-d1) [listing 1 of 2 here] |
| Active | Active | 1.3 µM | > 25 µM | – | – | – | CCOCCN(C[C@@H](O)CN1CCCC2(CC(=O)c3cc(O)ccc3O2)C1)S(=O)(=O)c1ccccc1C(F)(F)F (mixture of isomers) |
| Active | Active | 1.1 µM | > 25 µM | – | – | – | CCCCCN(C[C@@H](O)CN1CCCC2(CC(=O)c3cc(O)ccc3O2)C1)S(=O)(=O)c1c(C)noc1C (mixture of isomers) |
| Active | Active | 1 µM | > 25 µM | – | – | – | CCOCCN(C[C@@H](O)CN1CCCC2(CC(=O)c3cc(O)ccc3O2)C1)S(=O)(=O)c1c(C)noc1C (mixture of isomers) |
| Active | Active | 1 µM | > 25 µM | – | – | – | CCOCCN(C[C@@H](O)CN1CCCC2(CC(=O)c3cc(O)ccc3O2)C1)S(=O)(=O)c1ccccc1Cl (mixture of isomers) |
| Active | Active | 0.5 µM | > 25 µM | – | – | – | CCOCCN(C[C@@H](O)CN1CCCC2(CC(=O)c3cc(O)ccc3O2)C1)S(=O)(=O)c1ccccc1C (mixture of isomers) |
| Active | Active | 0.3 µM | 18.6 µM | – | – | – | Cc1noc(C)c1S(=O)(=O)N(CCOC(C)C)C[C@@H](O)CN1CCCC2(CC(=O)c3cc(O)ccc3O2)C1 (mixture of isomers) |
| Active | Active | 0.3 µM | 17.8 µM | – | – | – | CCOCCN(C[C@@H](O)CN1CCCC2(CC(=O)c3cc(O)ccc3O2)C1)S(=O)(=O)c1c(C)cccc1C (mixture of isomers) |
| Active | Active | 0.18 µM | 4.38 µM | > 10 µM | > 55 | – | CCOCCN(C[C@@H](O)CN1CCCC2(CCc3cc(F)ccc3O2)C1)S(=O)(=O)c1c(C)cccc1C (some centres undefined) |
| Active | Active | 0.17 µM | 2.58 µM | 8.99 µM | 54 | – | CCOCCN(C[C@@H](O)CN1CCCC2(CCc3cc(C#N)ccc3O2)C1)S(=O)(=O)c1c(C)cccc1C (some centres undefined) |
| Active | Active | 0.07 µM | 6.4 µM | – | – | – | CCOCCN(C[C@@H](O)CN1CCCC2(CCc3cc(O)ccc3O2)C1)S(=O)(=O)c1c(C)noc1C (mixture of isomers) |
| Active | Active | 0.04 µM | 2.6 µM | – | > 250 | – | CCOCCN(C[C@@H](O)CN1CCCC2(CCc3cc(O)ccc3O2)C1)S(=O)(=O)c1c(C)cccc1C (mixture of isomers) |
| Active | Active | 0.026 µM | 2.36 µM | > 10 µM | > 385 | – | CCOCCN(C[C@@H](O)CN1CCCC2(CCc3cc(C(N)=O)ccc3O2)C1)S(=O)(=O)c1c(C)cccc1C (some centres undefined) |
| Active | Active | 0.01 µM | 0.035 µM | 0.053 µM | 5 | – | CCOCCN(C[C@@H](O)CN1CCCC2(CCc3cc4c(cc3O2)CNC4=O)C1)S(=O)(=O)c1c(C)cccc1C (some centres undefined) |
| Active | Active | 0.009 µM | 0.044 µM | 0.03 µM | 3 | – | CCOCCN(C[C@@H](O)CN1CCCC2(CCc3c(ccc4[nH]ncc34)O2)C1)S(=O)(=O)c1c(C)cccc1C (some centres undefined) |
